Data reported in patent US20240174634A1, “Aldehyde Dehydrogenase Inhibitors and Their Therapeutic Use” (priority 2020, published 2024).

What follows are compounds tested against T1, ALDH1A3 (Homo sapiens, UniProt P47895) (assay: ALDH1A3 cellular assay (ALDEFLUOR) in WM266.4 melanoma cells). Settings: WM266.4 cells; 60 min incubation; percentage of ALDH-positive cells.
T1 sequence (P47895 1-512): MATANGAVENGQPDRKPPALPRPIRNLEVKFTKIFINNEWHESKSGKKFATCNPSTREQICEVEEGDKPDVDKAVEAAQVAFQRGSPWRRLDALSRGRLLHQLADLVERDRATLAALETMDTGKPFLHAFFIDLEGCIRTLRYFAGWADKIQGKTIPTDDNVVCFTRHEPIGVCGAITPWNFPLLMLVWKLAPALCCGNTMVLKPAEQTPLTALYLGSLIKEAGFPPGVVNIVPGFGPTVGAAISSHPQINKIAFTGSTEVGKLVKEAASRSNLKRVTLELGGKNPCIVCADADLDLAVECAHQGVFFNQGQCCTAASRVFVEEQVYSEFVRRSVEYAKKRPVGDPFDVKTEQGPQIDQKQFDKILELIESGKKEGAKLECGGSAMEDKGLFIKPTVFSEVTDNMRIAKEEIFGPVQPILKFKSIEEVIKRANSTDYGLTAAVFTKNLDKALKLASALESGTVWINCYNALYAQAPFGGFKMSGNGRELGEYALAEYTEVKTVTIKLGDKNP
Type: cell-based
Outline: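 WM266.4 melanoma cells, 7500 per well, incubated overnight, then 60 min at 37 °C with compound (10 μM to 0.0005 μM, 10 points) plus BAAA substrate (500 nM final), verapamil (50 μM) and Hoechst. Imaged BODIPY fluorescence per cell; EC50 from percentage of ALDH-positive cells.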
For `C[C@@H](c1ccccc1)N(CCO)CCOc1ccc2c(c1)CCC(=O)N2` [ALDHI-3007, 6-[2-[2-hydroxyethyl-[(1S)-1-phenylethyl]amino]ethoxy]-3,4-dihydro-1H-quinolin-2-one], the IC50 was 100 to 1000 nM.
`CN(CCOc1ccc2c(c1)CCC(=O)N2)C(=O)c1cccc(F)c1` [ALDHI-3008, 3-fluoro-N-methyl-N-[2-[(2-oxo-3,4-dihydro-1H-quinolin-6-yl)oxy]ethyl]benzamide] showed an IC50 of 100 to 1000 nM.
`CN(CCOc1ccc2c(c1)CCC(=O)N2)Cc1cccnc1` [ALDHI-3010, 6-[2-[methyl(3-pyridylmethyl)amino]ethoxy]-3,4-dihydro-1H-quinolin-2-one] gave an IC50 of 100 to 1000 nM.
For `CN(CCOc1ccc2c(c1)CCC(=O)N2)C(=O)c1cccnc1` [ALDHI-3013, N-methyl-N-[2-[(2-oxo-3,4-dihydro-1H-quinolin-6-yl)oxy]ethyl]pyridine-3-carboxamide], the IC50 was 1000 to 10000 nM.
